Experimental data reported in publication PMC7998748, “A Unique Acylated Flavonol Glycoside from Prunus persica (L.) var. Florida Prince: A New Solid Lipid Nanoparticle Cosmeceutical Formulation for Skincare” (Antioxidants, 2021).

Key:
[1] = β-carotene bleaching assay; conditions: after 30 min
Source text: (§1) The DPPH assay was peformed using the method of Yardpiroon et al., Vitamin C was used as a positive control. The ABTS assay followed the method of Re et al., [40], Vitamin C was used as a standard. The β-carotene bleaching assay used the method described by Soulef et al., [14] in the presence of the positive control BHT. The value for each test sample was presented as the inhibition curve at 50% or IC50.

human leukocyte elastase = molecular target: T1, human leukocyte elastase (Homo sapiens, UniProt P08246); test: Anti-elastase assay; type: biochemical
T1 sequence (P08246 30-267): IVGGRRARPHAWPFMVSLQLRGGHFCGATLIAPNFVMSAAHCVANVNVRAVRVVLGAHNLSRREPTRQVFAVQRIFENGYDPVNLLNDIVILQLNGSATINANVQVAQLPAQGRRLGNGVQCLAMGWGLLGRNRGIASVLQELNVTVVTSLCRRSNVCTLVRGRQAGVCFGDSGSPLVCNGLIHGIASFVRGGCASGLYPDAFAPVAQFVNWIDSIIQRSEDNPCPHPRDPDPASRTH
Protocol: The anti-aging and skin whitening activities were assessed following the methods reported by Mostafa et al.. For the anti-elastase assay, 1 μg/mL of human leukocyte elastase was incubated with HEPES buffer pH 7.5 and each of the tested extracts or 1.4 mg/mL N-Methoxysuccinyl-Ala-Ala-Pro-chloromethyl ketone (standard inhibitor) in a 96-well plate for 20 min at room temperature before the addition of 100 μL of 1 mM N-Methoxysuccinyl-Ala-Ala-Pro-Val-p-nitroanilide as a substrate. After 40 min incubation the absorbance was measured at 405 nm with a well devoid of extract/inhibitor serving as a blank. The tested samples were used in a concentration range of 25–300 µg/mL.

ABTS assay = test: ABTS assay
Source text: as §1

DPPH assay = test: DPPH assay
Source text: as §1

[2] = molecular target: collagenase type 1 from Clostridium histolyticum (Hathewaya histolytica (Clostridium histolyticum), UniProt Q46085); test: biochemical; conditions: read-out: Anti-Collagenase % Inhibition
[3] = MTT cytotoxicity in human keratinocytes; type: cell-based; conditions: human keratinocytes cell line, 1 mg/mL, read-out: cell viability (cells survived)
Protocol: (§2) The human keratinocytes cell line was obtained from VACSERA CO. (The Egyptian Company for the Production of Vaccines, Sera, and Drugs, Giza, Egypt). The MTT assay was done for PPEE and PPEE-SLNs according to the method of Mostafa et al..
(§3) The MTT assay was used to test whether PPEE, PPEE-SLNs, and KDPAG could affect cell viability using human keratinocytes. Different concentrations of PPEE, PPEE-SLNs, extract-free-SLNs and KDPAG at 0.0625– 1mg/mL were incubated over 24 h with a human keratinocytes cell line (Figure 2). […] However, after treatment with 1 mg/mL of PPEE, PPEE-SLNS, Extract-free-SLNs, and KDPAG over 24 h, a significant reduction in cell viability of human keratinocytes was observed, 93%, 90%, 95%, and 89% of the cells survived, respectively. Thus, concentrations of PPEE, PPEE-SLNs, and KDPAG equal to or lower than 0.5 mg/mL were used for subsequent studies.

[4] = tested on: human keratinocytes cell line; test: MTT cytotoxicity in human keratinocytes; type: cell-based; conditions: 0.0625–0.5 mg/mL, 24 h
Protocol: as §2, §3

mushroom tyrosinase = mushroom tyrosinase (Agaricus bisporus, UniProt C7FF04); test: Anti-tyrosinase assay; type: biochemical; conditions: 300 μg/mL tested samples; positive control kojic acid (methods: 1.4 mg/mL)
Chain of mushroom tyrosinase (G1K3P4 entry or part of it): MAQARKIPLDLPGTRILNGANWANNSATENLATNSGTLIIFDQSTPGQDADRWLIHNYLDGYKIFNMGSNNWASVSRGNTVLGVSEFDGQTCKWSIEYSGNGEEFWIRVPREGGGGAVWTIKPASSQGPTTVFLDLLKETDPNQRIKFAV
Chain of mushroom tyrosinase (C7FF04 1-392): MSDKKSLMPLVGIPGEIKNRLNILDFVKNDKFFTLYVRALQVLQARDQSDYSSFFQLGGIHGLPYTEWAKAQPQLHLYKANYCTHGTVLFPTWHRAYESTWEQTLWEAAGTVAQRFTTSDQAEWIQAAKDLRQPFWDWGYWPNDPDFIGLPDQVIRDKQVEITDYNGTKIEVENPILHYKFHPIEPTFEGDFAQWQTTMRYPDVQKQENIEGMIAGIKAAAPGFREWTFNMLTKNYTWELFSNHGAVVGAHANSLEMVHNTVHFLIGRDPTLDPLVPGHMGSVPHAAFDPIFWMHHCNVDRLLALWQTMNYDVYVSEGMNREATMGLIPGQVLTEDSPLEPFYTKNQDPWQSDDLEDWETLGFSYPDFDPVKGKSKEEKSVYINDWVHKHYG
Protocol: For the anti-tyrosinase assay, 5600 units/mL of mushroom tyrosinase was incubated with each of the tested extracts or 1.4 mg/mL kojic acid (standard inhibitor) for 15 min at 37 °C before adding 1 mM L-DOPA as a substrate. The absorbance of the formed dopachrome was measured at 475 nm. The tested samples were used in a concentration range of 75–500 µg/mL.

Chain of collagenase type 1 from Clostridium histolyticum (Q46085 41-1021 limits assumed): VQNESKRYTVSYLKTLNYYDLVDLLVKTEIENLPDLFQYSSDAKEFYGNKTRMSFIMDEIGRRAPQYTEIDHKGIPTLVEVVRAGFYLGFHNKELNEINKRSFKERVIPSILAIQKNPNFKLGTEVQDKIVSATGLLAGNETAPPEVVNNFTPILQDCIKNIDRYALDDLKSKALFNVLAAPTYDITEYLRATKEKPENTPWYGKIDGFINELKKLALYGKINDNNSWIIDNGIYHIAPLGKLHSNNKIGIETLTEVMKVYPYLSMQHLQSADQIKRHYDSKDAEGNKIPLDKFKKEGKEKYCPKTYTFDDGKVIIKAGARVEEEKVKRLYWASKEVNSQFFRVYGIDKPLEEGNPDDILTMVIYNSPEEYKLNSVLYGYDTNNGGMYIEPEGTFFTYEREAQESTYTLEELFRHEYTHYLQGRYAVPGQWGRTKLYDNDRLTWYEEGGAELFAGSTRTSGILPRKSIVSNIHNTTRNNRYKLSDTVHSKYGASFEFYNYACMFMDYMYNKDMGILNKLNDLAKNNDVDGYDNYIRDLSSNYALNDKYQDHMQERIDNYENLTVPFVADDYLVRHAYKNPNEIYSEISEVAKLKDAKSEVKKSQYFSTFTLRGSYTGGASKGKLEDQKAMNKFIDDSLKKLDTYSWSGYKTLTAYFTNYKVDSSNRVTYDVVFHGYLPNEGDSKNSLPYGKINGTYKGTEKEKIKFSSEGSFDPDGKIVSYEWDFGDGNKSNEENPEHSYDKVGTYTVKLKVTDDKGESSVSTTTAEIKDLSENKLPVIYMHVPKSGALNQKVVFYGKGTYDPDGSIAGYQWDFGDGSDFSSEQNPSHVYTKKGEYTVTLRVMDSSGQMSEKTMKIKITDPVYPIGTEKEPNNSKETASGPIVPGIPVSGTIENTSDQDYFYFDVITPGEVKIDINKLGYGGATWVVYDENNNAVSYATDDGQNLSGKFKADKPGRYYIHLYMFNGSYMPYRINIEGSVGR

SMILES | β-carotene assay IC50 [1] [µg/mL] | inhibition at 1400 µg/mL (human leukocyte elastase; 300 μg/mL tested samples, positive control N-(Methoxysuccinyl)-Ala-Ala-Pro-Val-chloromethyl ketone (methods: 1.4 mg/mL)) [%] | IC50 (human leukocyte elastase; positive control N-(Methoxysuccinyl)-Ala-Ala-Pro-Val-chloromethyl ketone) [µM] | ABTS IC50 (ABTS assay) [µg/mL] | DPPH IC50 (DPPH assay) [µg/mL] | inhibition at 1400 µg/mL [2] [%] | viability at 24 h, 1 mg/mL [3] [%] | reduction in cell viability [4] | inhibition at 300 µg/mL (mushroom tyrosinase) [%]
Cc1cc(C(C)(C)C)c(O)c(C(C)(C)C)c1 [BHT, reference compound] | 8.06 ± 0.67 | – | – | – | – | – | – | – | –
O=C(Cc1ccc(O)c(O)c1)OC[C@H]1O[C@@H](Oc2c(-c3ccc(O)cc3)oc3cc(O)cc(O)c3c2=O)[C@H](O)[C@@H](O)[C@@H]1O [KDPAG, kaempferol 3-O-β-^4C1-(6″-O-3,4-dihydroxyphenylacetyl glucopyranoside)] | 1.73 ± 0.05 | 89.2 ± 1.26 | 83.2 | 3.91 ± 1.43 | 6.35 ± 3.40 | 91.1 ± 2.45 | 89 | no observed significant reduction | 85.7 ± 2.1
O=C1O[C@H]([C@@H](O)CO)C(O)=C1O [vitamin C, reference compound] | – | – | – | 0.96 ± 0.02 | 2 ± 0.01 | – | – | – | –
